# Test results taken from PubChem BioAssay (NCI).
#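 In this assay, cells in 96-well plates receive the compound at five concentrations for 48 hours. Endpoints are linearly interpolated between the surrounding concentrations. Abbreviation: GI50, concentration required for 50% inhibition of growth. TGI marks complete inhibition of growth.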
# Tests used:
# Assay in all cases: DTP human tumour cell line panel, 48 h
# A498 renal = tested on: A498 renal
# COLO 205 colon = tested on: COLO 205 colon
# LOX IMVI melanoma = tested on: LOX IMVI melanoma
# MOLT-4 leukemia = tested on: MOLT-4 leukemia
# NCI-H460 lung = tested on: NCI-H460 lung
# PC-3 prostate = tested on: PC-3 prostate
# SF-539 CNS = tested on: SF-539 CNS
# SK-MEL-28 melanoma = tested on: SK-MEL-28 melanoma
# SK-OV-3 ovarian = tested on: SK-OV-3 ovarian
# T-47D breast = tested on: T-47D breast
Compound,TGI (A498 renal) [µM],TGI (COLO 205 colon) [µM],TGI (LOX IMVI melanoma) [µM],TGI (MOLT-4 leukemia) [µM],TGI (NCI-H460 lung) [µM],TGI (PC-3 prostate) [µM],TGI (SF-539 CNS) [µM],TGI (SK-MEL-28 melanoma) [µM],TGI (SK-OV-3 ovarian) [µM],TGI (T-47D breast) [µM],GI50 (A498 renal) [µM],GI50 (COLO 205 colon) [µM],GI50 (LOX IMVI melanoma) [µM],GI50 (MOLT-4 leukemia) [µM],GI50 (NCI-H460 lung) [µM],GI50 (PC-3 prostate) [µM],GI50 (SF-539 CNS) [µM],GI50 (SK-MEL-28 melanoma) [µM],GI50 (SK-OV-3 ovarian) [µM],GI50 (T-47D breast) [µM]
Cn1c(N)cc(=O)nc1N,> 100,> 100,> 100,> 100,> 100,> 100,> 100,> 100,> 100,> 100,–,–,–,–,–,–,–,–,–,–
Cn1cnc2nc(Cl)nc(Cl)c21,6.77,5.27,16.8,36.2,6.12,12.8,5.53,16.5,> 100,26.8,2.2,2.18,0.406,5.26,2.04,0.594,0.924,4.35,4.32,0.489
CC(=O)OC1C(OC/C2=C/C3[C@@H](C(C)C)CC=C(C)[C@@H]3CC(OC(=O)/C=C/c3cn(C)cn3)[C@]3(C)C=C[C@@]2(O)O3)OCC(O)C1O (some centres not stated),0.106,0.0975,> 50,> 50,–,> 50,0.0598,> 50,–,> 50,0.0122,0.0112,0.0234,0.0415,0.00928,0.0271,0.0123,0.0389,0.0132,0.0219
COc1cc2c(cc1Nc1nc(Nc3ccsc3C(N)=O)c3cc[nH]c3n1)N(C(=O)CN(C)C)CCC2,4.13,0.394,3.66,9.6,3.21,> 23.6,4.16,5.69,4.89,9.65,0.5,< 0.0025,0.58,1.23,0.498,1.17,0.983,1.8,1.18,3.87
CCOC(=O)c1ccccc1NC(c1ccccc1)c1ccc2cccnc2c1O (configuration not stated),8.05,24.1,11,> 100,78.4,> 100,10.2,> 100,56.4,> 100,1.15,3.33,2.45,2.54,2.82,5.13,2.52,3.19,3.64,4.22
COc1ccc(C2CC(c3cccc(Nc4ccnc5cc(Cl)ccc45)c3)=NN2c2ccc(Cl)cc2)cc1 (configuration not stated),53.9,19.7,13.6,69.5,17.4,64.5,4.43,66.9,99.3,33.2,4.64,3.78,1.3,3.18,3.04,1.18,1.8,7.07,15,0.702
CN(C)c1ccc(/C=C/C(=O)c2ccc(Nc3nc(Nc4ccc(F)cc4)nc(Nc4ccc(Cl)cc4)n3)cc2)cc1,18.1,18.7,47.2,5.23,15.6,5.45,27.2,52.7,74.9,45.2,2.97,4.26,8.93,1.55,3.94,2.08,9.58,3.88,19,3.33
COc1c(C)cnc(Cn2cnc3c(Cl)nc(N)nc32)c1C,23.4,–,4.05,> 100,> 100,> 100,> 100,> 83.4,> 70.6,> 100,0.679,0.218,0.29,0.281,0.0974,0.359,0.605,0.546,0.23,0.11
C=CC(=O)N1CC[C@@H](Oc2nc(Nc3ccc(N4CCC(N5CCN(C)CC5)CC4)cc3)c(C(N)=O)nc2CC)C1,> 100,> 100,> 100,> 100,> 100,> 100,> 100,> 100,> 100,> 100,> 100,> 100,> 100,> 100,> 100,> 100,> 100,> 100,> 100,> 100
Cc1cccc(NC(=O)c2sc3nc4c(cc3c2N)CCC4)c1C,0.938,1.97,> 100,> 100,13.1,15.7,2.51,39.6,18.4,34.7,0.262,0.361,0.643,0.576,0.382,0.369,0.241,0.803,0.379,0.351
COC(=O)c1cc2c([nH]c3ccccc32)c(-c2nc3cc(N(S(=O)(=O)c4ccc(C)cc4)S(=O)(=O)c4ccc(C)cc4)c(OC)cc3cc2CO)n1,> 100,> 100,> 100,25.7,> 100,> 100,> 100,> 100,> 100,> 100,> 100,> 100,> 100,10.6,> 100,> 100,56.1,> 100,> 100,> 100
COc1cc(OC)c(-c2oc3ccccc3c(=O)c2O)c(OC)c1,> 100,> 100,> 100,> 100,> 100,> 100,> 100,> 100,> 100,> 100,–,–,–,–,–,–,–,–,–,–
CC[N+]1(C)CCC(O)(/C=C/c2ccccc2)C(C(=O)/C=C/c2ccccc2)C1 (configuration not stated),38.9,8.19,7.79,7.11,43.5,29.6,19,18.9,32.9,40.4,–,–,–,–,–,–,–,–,–,–
CCN(CC)CCC(CNc1c2ccc(Cl)cc2nc2ccc(OC)cc12)c1ccccc1 (configuration not stated),2.75,2.28,2.39,5,3.99,6.16,3.16,3.27,3.5,4.96,1.4,1.09,1,0.486,0.768,1.96,1.49,1.84,1.64,2.25
O=C(NC(c1ccccc1)C(O)C(=O)OCc1ccc2c(c1)C(=O)c1ccccc1C2=O)c1ccccc1 (configuration not stated),15.7,> 100,> 83.8,> 100,42.8,42.1,20.6,> 95.6,15.3,34.9,–,–,–,–,–,–,–,–,–,–
CCOC(=O)C(Cc1ccc(N(CCCl)CCCl)cc1)NC(=O)C(CC(C)C)NC(C)=O (configuration not stated),10.6,2.7,2.23,2.4,1.54,5.4,7.01,3.82,4.94,3.48,2.29,1.25,0.296,0.302,0.0763,1.3,1.09,1.61,1.38,0.642
C#Cc1cccc(NC(=O)Nc2cccc(NC(=O)CCl)c2)c1,> 82.5,> 82.5,27,81.4,> 82.5,> 82.5,27.8,> 82.5,> 82.5,> 82.5,1.22,58.7,13.2,12.5,27.3,37.8,14,> 82.5,46.5,32.1
CC(C)(O)C1CC(=O)C(C)(C2C(O)CC3(C)C4CC=C5C(CCC(O)C5(C)C)C4(C)C(=O)CC23C)O1 (configuration not stated),> 100,> 100,> 100,> 100,> 100,> 100,> 100,> 100,> 100,> 100,–,–,–,–,–,–,–,–,–,–
Oc1c(Br)cc(Br)c2cccnc12,11.5,25,14.1,8.49,10.7,> 100,7.63,> 100,21.1,18.4,2.03,3.79,2.94,3,2.94,4.5,3.17,4.79,3.99,3.03
Cn1cc(C2=C(c3cn(CCCSC(=N)N)c4ccccc34)C(=O)NC2=O)c2ccccc21,12,1.92,5.45,8.08,7.54,11.1,5.16,4.48,15.4,5.12,5,0.668,1.91,1.93,3.65,3.38,1.9,1.3,5,1.11
C/C=C\C(C)=C/C(C)C(=O)CC(O)CC1CC(=O)NC(=O)C1 (configuration not stated),> 100,> 100,> 100,> 28.2,> 100,> 100,> 100,> 100,> 100,> 100,–,–,–,–,–,–,–,–,–,–
